Data as given in ChEMBL document CHEMBL2029202, “Towards a KCC2 blocker pharmacophore model” (Bioorg Med Chem Lett, 2012).

Biological target: T1, Solute carrier family 12 member 5 (Rattus norvegicus, UniProt Q63633)
T1 sequence (Q63633 whole entry): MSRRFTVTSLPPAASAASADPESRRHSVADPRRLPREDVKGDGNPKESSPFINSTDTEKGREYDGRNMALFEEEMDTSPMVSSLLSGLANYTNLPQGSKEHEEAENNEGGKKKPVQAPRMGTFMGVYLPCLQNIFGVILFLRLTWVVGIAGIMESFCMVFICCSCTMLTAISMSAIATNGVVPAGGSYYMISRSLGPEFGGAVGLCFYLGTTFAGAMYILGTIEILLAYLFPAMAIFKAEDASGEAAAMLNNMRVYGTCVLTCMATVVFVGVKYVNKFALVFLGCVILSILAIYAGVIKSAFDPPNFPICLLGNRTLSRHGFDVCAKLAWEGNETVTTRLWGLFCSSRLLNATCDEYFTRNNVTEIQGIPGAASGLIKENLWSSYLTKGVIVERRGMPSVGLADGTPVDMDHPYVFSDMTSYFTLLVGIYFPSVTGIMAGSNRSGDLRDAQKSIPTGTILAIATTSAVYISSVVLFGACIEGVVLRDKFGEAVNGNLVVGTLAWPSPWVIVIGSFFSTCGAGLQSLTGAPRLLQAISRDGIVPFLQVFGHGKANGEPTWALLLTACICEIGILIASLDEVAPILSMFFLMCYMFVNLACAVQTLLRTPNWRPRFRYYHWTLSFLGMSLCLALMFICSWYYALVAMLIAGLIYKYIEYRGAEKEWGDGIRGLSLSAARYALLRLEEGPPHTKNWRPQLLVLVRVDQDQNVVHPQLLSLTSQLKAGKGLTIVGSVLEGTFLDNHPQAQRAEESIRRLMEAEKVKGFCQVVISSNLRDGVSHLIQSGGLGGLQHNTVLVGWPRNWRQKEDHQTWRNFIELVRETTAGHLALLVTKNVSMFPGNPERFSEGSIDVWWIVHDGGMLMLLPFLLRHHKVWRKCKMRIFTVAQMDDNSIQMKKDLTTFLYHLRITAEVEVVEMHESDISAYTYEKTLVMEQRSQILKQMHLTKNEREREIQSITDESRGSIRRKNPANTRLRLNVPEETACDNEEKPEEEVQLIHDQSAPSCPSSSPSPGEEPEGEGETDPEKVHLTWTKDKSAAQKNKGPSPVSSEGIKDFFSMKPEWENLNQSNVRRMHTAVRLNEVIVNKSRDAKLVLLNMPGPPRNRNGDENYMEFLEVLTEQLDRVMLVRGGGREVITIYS
Assay: Inhibition of rat KCC2 expressed in human Sk-Hep cells assessed as […] off Rb+ flux by atomic absorption spectroscopic analysis
Format: cell-based

Q: How did the IC50 turn out when `CC(=O)N1CCCC1(COCc1ccccc1)Cc1ccccc1` (racemic) was run?
A: 20000 nM

Q: For `O=C(c1cc2cc(Br)ccc2oc1=O)N1CCN(Cc2ccccc2)CC1`, which IC50 is on record?
A: 600 nM

Q: How did the IC50 turn out when `CC(=O)N1CCCC1(Cc1ccccc1)c1nc(-c2ccccc2)co1` (racemic) was run?
A: 12600 nM

Q: For `CC(=O)N1CCCC1(Cc1ccccc1)C1=N[C@H](c2ccccc2)CO1` (mixture of isomers), which IC50 is on record?
A: 1300 nM

Q: Which IC50 does the source give for `CC(=O)N1CCCC1(Cc1ccccc1)C(=O)CCc1ccccc1` (racemic) here?
A: 300 nM

Q: Which IC50 does the source give for `CC(=O)N1CCCC1(Cc1ccc(F)cc1)C(=O)CCc1ccc(F)cc1` (racemic) here?
A: 200 nM

Q: For `O=C(c1cc2ccccc2oc1=O)N1CCN(Cc2ccccc2)CC1`, which IC50 is on record?
A: 4000 nM

Q: `CC(=O)N1c2ccccc2CC1(Cc1ccccc1)C(=O)OCc1ccccc1` (racemic) was tested. Which IC50 did it give?
A: 200 nM

Q: For `CC(=O)N1CCC[C@@]1(Cc1ccccc1)C(=O)OCc1ccccc1`, which IC50 is on record?
A: 300 nM

Q: How did the IC50 turn out when `CC(=O)N1CCC[C@]1(Cc1ccccc1)C(=O)OCc1ccccc1` was run?
A: 50000 nM

Q: Which IC50 does the source give for `O=C1CCCC2CCC(Cc3ccccc3)(C(=O)OCc3ccccc3)N12` (racemic) here?
A: 1000 nM

Q: For `CC(=O)N1CCCC1(Cc1ccccc1)C(=O)OCc1ccccc1` (racemic), which IC50 is on record?
A: 800 nM
